{"source": "ChEMBL document CHEMBL4387715", "about": "“Singlet oxygen-activatable Paclitaxel prodrugs via intermolecular activation for combined PDT and chemotherapy” (Bioorg Med Chem Lett, 2019)", "key": {"AY-27": {"test_system": "AY-27", "assay": "Photocytotoxicity against rat AY27 cells assessed as cell death at 0.025 to 1.25 uM incubated for 2 hrs followed by 10 mW/cm2 laser light irradiation for 30 mins and measured after 24 hrs by MTT assay", "type": "functional, cell-based"}, "[1]": {"assay": "Lipophilicity, log D of the compound at pH 7.4 by shake flask method", "type": "physicochemical", "details": "buffer"}, "[2]": {"assay": "Photocytotoxicity against rat AY27 cells assessed as cell death at 0.25 uM incubated for 2 hrs followed by 10 mW/cm2 laser light irradiation for 30 mins and measured after 24 hrs in presence of Hexyl-5-aminolevulinic acid by MTT assay relative to control", "type": "functional, AY-27"}, "[3]": {"assay": "Dark toxicity in rat AY27 cells assessed as reduction in cell viability at 0.025 to 1.25 uM preincubated for 2 hrs followed by 30 mins incubation under dark condition and measured after 24 hrs by MTT assay", "type": "cell-based", "details": "ay-27, 1.25 µM"}, "[4]": {"assay": "Dark toxicity in rat AY27 cells assessed as reduction in cell viability at 0.025 to 1.25 uM preincubated for 2 hrs followed by 30 mins incubation under dark condition measured after 24 hrs in presence of Hexyl-5-aminolevulinic acid by MTT assay", "type": "cell-based", "details": "ay-27, 1.25 µM"}, "[5]": {"assay": "Photodynamic anticancer activity against rat AY27 cells assessed as cell death at 0.5 uM incubated for 2 hrs followed by 10 mW/cm2 laser light irradiation for 30 mins and measured after 24 hrs by MTT assay relative to control", "type": "functional, AY-27"}, "[6]": {"assay": "Drug localization in mitochondria of rat AY27 cells at 0.5 uM assessed as protoporphyrin IX level after 2 hrs by Mitotracker deep Red staining-based confocal fluorescence microscopic method", "type": "ADME", "details": "ay-27, 2 h"}, "[7]": {"assay": "Drug uptake in rat AY27 cells assessed per cell at 5 uM measured after 120 mins by fluorescence assay", "type": "ADME, cell-based", "details": "ay-27, 2 h"}, "[8]": {"assay": "Drug uptake in rat AY27 cells at 1 uM by texas red probe-based fluorescence microscopy", "type": "ADME, cell-based", "details": "ay-27, 1 µM, TDE = time-dependent effect"}, "[9]": {"assay": "Drug localization in mitochondria of rat AY27 cells at 0.5 uM after 30 mins by Mitotracker deep Red staining-based confocal fluorescence microscopy", "type": "ADME", "details": "ay-27, 0.5 h"}, "[10]": {"assay": "Lipophilicity, log D of the compound at pH 7.4", "type": "physicochemical", "details": "buffer"}}, "note": "The source made the active and inactive calls. The calls are words filed in the database; no cut-off is given here.", "data": [{"smiles": "CC(=O)O[C@H]1C(=O)[C@@]2(C)[C@H]([C@H](OC(=O)c3ccccc3)[C@]3(O)C[C@H](OC(=O)C(OC(=O)/C=C/N4CCC(COCCC[P+](c5ccccc5)(c5ccccc5)c5ccccc5)CC4)[C@@H](NC(=O)c4ccccc4)c4ccccc4)C(C)=C1C3(C)C)[C@]1(OC(C)=O)CO[C@@H]1C[C@@H]2O.[Br-]", "note": "(stereo partly specified)", "values": [{"measurement": "Activity", "setting": "AY-27", "result": "inactive"}, {"measurement": "logD", "setting": "[1]", "result": 1.3}, {"measurement": "Activity", "setting": "[2]", "result": 80, "unit": "%"}, {"measurement": "Activity", "setting": "[3]", "result": "Non-Toxic"}, {"measurement": "Activity", "setting": "[4]", "result": "Non-Toxic"}]}, {"smiles": "CCCCCCOC(=O)CCC(=O)CN", "note": "[HEXAMINOLEVULINATE]", "values": [{"measurement": "Activity", "setting": "[5]", "result": 40, "unit": "%"}, {"measurement": "Drug uptake", "setting": "[6]", "result": "Active"}]}, {"smiles": "CC(=O)O[C@H]1C(=O)[C@@]2(C)[C@H]([C@H](OC(=O)c3ccccc3)[C@]3(O)C[C@H](OC(=O)C(OC(=O)/C=C/N4CCC(COC(=O)c5cc[n+](C)cc5)CC4)[C@@H](NC(=O)c4ccccc4)c4ccccc4)C(C)=C1C3(C)C)[C@]1(OC(C)=O)CO[C@@H]1C[C@@H]2O.[Cl-]", "note": "(stereo partly specified)", "values": [{"measurement": "Activity", "setting": "AY-27", "result": "inactive"}, {"measurement": "logD", "setting": "[1]", "result": 1}, {"measurement": "Activity", "setting": "[2]", "result": 82, "unit": "%"}, {"measurement": "Activity", "setting": "[3]", "result": "Non-Toxic"}, {"measurement": "Activity", "setting": "[4]", "result": "Non-Toxic"}]}, {"smiles": "CCN(CC)c1ccc2c(-c3ccccc3C(=O)OCC3CCN(/C=C/C(=O)OC(C(=O)O[C@H]4C[C@@]5(O)[C@@H](OC(=O)c6ccccc6)[C@@H]6[C@]7(OC(C)=O)CO[C@@H]7C[C@H](O)[C@@]6(C)C(=O)[C@H](OC(C)=O)C(=C4C)C5(C)C)[C@@H](NC(=O)c4ccccc4)c4ccccc4)CC3)c3ccc(=[N+](CC)CC)cc-3oc2c1.[Cl-]", "note": "(stereo partly specified)", "values": [{"measurement": "Activity", "setting": "AY-27", "result": "inactive"}, {"measurement": "logD", "setting": "[1]", "result": 1.9}, {"measurement": "Activity", "setting": "[2]", "result": 84, "unit": "%"}, {"measurement": "Activity", "setting": "[3]", "result": "Non-Toxic"}, {"measurement": "Drug uptake", "setting": "[7]", "result": 0.68, "unit": "fmol"}, {"measurement": "Activity", "setting": "[4]", "result": "Non-Toxic"}, {"measurement": "Drug uptake", "setting": "[8]", "result": "Tde"}, {"measurement": "Drug uptake", "setting": "[9]", "result": "Active"}]}, {"smiles": "CC(=O)O[C@H]1C(=O)[C@@]2(C)[C@H]([C@H](OC(=O)c3ccccc3)[C@]3(O)C[C@H](OC(=O)[C@H](O)[C@@H](NC(=O)c4ccccc4)c4ccccc4)C(C)=C1C3(C)C)[C@]1(OC(C)=O)CO[C@@H]1C[C@@H]2O", "note": "[PACLITAXEL]", "values": [{"measurement": "logD", "setting": "[10]", "result": 3.6}]}]}
